Data taken from patent US20230265116A1, “DEGRADATION OF (EGFR) BY CONJUGATION OF EGFR INHIBITORS WITH E3 LIGASE LIGAND AND METHODS OF USE” (BEIGENE, LTD., priority 2020, published 2023).
Read-outs that look alike come from different tables or passages of the source.

Tests used:
Assay type in all cases: cell-based
[1] = test system: EGFR Del19/T790M/C797S (H1975-clone #28); assay: EGFR degradation HTRF assay, H1975-clone #28 DTC cells
Summary of the method: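 Lentiviral Del19/T790M/C797S (clone #28) or Del19/C797S (clone #23) EGFR expressed in H1975 with endogenous EGFR knocked out. Cells treated 16 h, 37 °C, 8 doses, 5-fold from 10 uM top, 0.2% DMSO; EGFR read by HTRF after lysis. Degradation % vs DMSO control; DC50, Dmax from four-parameter fit.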

[2] = target: T1, EGFR L858R/C797S (BaF3 LC cells) (Homo sapiens, UniProt P00533, C797S/L858R); assay: EGFR degradation HTRF assay, BaF3 LC cells
T1 construct: expressed in transfected cells; host or cells: BaF3
T1 sequence (P00533 25-1210 C797S/L858R): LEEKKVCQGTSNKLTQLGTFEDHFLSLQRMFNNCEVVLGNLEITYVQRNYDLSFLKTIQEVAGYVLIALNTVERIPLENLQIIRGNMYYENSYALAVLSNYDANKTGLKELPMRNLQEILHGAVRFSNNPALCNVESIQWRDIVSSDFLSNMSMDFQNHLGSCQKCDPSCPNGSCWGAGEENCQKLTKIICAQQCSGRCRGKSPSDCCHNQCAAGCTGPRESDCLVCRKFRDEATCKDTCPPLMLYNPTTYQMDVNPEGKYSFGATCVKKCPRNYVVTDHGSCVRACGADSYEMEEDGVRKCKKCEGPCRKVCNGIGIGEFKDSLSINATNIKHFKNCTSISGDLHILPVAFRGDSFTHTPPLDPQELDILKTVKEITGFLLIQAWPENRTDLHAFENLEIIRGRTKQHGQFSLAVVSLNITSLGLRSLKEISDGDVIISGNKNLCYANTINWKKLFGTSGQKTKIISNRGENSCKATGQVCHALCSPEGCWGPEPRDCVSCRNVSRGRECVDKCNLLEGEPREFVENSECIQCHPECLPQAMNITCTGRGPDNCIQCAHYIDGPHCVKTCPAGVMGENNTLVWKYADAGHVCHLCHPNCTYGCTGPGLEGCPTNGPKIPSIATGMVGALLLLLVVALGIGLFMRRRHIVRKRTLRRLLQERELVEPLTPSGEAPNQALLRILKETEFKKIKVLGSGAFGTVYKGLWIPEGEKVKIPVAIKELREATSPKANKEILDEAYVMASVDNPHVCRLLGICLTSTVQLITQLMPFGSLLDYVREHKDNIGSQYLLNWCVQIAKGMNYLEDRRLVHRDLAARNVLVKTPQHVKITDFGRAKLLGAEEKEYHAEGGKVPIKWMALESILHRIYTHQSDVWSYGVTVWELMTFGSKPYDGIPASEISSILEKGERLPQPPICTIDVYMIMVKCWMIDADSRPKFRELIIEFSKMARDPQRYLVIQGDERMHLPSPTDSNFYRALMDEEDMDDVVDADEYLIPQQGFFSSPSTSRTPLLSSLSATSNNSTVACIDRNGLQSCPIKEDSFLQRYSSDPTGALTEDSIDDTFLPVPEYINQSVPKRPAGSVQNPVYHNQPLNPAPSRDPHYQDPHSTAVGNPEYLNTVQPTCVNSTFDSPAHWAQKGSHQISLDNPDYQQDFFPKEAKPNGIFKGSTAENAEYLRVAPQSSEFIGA

[3] = test system: EGFR Del19/C797S (H1975-clone #23); assay: EGFR degradation HTRF assay, H1975-clone #23 DC cells; conditions: for H1975 #23 DC Dmax (%): maximum percentage of degradation
Experimental: H1975-clone #28(Del19/T790M/C797S) and H1975-clone #23(Del19/C797S). EGFR-Del19/T790M/C797S and EGFR-Del19/C797S were stably expressed in H1975 cell lines by lentivirus-mediated over-expression, respectively. The EGFR over-expressed cells then underwent gene knockout, in which the EGFR targeting sgRNA was designed to only target the endogenous EGFR copies and preserve the exogenous EGFR copies. Followed by the gene knockout, the edited H1975 cells were seeded in 96 well plates at the concentration of 1 cell/well, cultured for about 2 weeks to allow single clones formation. The formed clones were screened by DNA sequencing and whole exon sequencing analysis for the desired edition. H1975-clone #28 and H1975-clone #23 were finally confirmed as homozygous Del19/T790M/C797S EGFR and Del19/C797S EGFR clones, respectively.
BaF3 WT(wild type), BaF3-LTC(L858R/T790M/C797S) and BaF3-DTC(Del19/T790M/C797S) cells are treated with compounds diluted in 0.2% DMSO cell culture medium and incubate for 16h, 37° C., 5% CO2, H1975-#36, H1975-#28, H1975-#23 and HCC827 cells are treated with compounds diluted in 0.2% DMSO cell culture medium on day 2, incubate for 16h, 37° C., 5% CO2.the final concentriation of compounds in all assay is start with 10 uM, 5-fold dilution, total 8 doses were included.
After 16h treatment, add HTRF lysis buffer to each well; seal the plate and incubate 1 hour at room temperature on a plate shaker; Once the cells are lysed, 16 μL of cell lysate are transferred to a PE 384-well HTRF detection plate; 4 μL of pre-mixed HTRF antibodies are added to each well; Cover the plate with a plate sealer, spin 1000 rpm for 1 min, Incubate overnight at room temperature; Read on BMG PheraStar with HTRF protocol (337 nm-665 nm-620 nm).
The inhibition (degradation) percentage of the compound was calculated by the following equation: Inhibition percentage of Compound=100-100×(Signal-low control)/(High control-low control), wherein signal=each test compound group
High control=Cell group with added DMSO and without compound, indicating microplate readings without EGFR degradation;
Dmax is the maximum percentage of inhibition (degradation).
The IC50 (DC50) value of a compound can be obtained by fitting the following equation
Y=Bottom+(TOP−Bottom)/(1+((IC50/X)^hillslope))
Wherein, X and Y are known values, and IC50, Hillslope, Top and Bottom are the parameters obtained by fitting with software. Y is the inhibition percentage (calculated from the equation), X is the concentration of the compound; IC50 is the concentration of the compound when the 50% inhibition is reached. The smaller the IC50 value is, the stronger the inhibitory ability of the compound is. Vice versa, the higher the IC50 value is, the weaker the inhibitory ability of the compound is; Hillslope represents the slope of the fitted curve, generally around 1*; Bottom represents the minimum value of the curve obtained by data fitting, which is generally 0%±20%; Top represents the maximum value of the curve obtained by data fitting, which is generally 100%±20%. The experimental data were fitted by calculating and analyzing with Dotmatics data analysis software.

[4] = target: T2, EGFR L858R/T790M/C797S (BaF3-LTC cells) (Homo sapiens, UniProt P00533, C797S/L858R/T790M); assay: EGFR degradation HTRF assay, BaF3-LTC cells
T2 construct: expressed in transfected cells; host or cells: BaF3
T2 sequence (P00533 25-1210 T790M/C797S/L858R): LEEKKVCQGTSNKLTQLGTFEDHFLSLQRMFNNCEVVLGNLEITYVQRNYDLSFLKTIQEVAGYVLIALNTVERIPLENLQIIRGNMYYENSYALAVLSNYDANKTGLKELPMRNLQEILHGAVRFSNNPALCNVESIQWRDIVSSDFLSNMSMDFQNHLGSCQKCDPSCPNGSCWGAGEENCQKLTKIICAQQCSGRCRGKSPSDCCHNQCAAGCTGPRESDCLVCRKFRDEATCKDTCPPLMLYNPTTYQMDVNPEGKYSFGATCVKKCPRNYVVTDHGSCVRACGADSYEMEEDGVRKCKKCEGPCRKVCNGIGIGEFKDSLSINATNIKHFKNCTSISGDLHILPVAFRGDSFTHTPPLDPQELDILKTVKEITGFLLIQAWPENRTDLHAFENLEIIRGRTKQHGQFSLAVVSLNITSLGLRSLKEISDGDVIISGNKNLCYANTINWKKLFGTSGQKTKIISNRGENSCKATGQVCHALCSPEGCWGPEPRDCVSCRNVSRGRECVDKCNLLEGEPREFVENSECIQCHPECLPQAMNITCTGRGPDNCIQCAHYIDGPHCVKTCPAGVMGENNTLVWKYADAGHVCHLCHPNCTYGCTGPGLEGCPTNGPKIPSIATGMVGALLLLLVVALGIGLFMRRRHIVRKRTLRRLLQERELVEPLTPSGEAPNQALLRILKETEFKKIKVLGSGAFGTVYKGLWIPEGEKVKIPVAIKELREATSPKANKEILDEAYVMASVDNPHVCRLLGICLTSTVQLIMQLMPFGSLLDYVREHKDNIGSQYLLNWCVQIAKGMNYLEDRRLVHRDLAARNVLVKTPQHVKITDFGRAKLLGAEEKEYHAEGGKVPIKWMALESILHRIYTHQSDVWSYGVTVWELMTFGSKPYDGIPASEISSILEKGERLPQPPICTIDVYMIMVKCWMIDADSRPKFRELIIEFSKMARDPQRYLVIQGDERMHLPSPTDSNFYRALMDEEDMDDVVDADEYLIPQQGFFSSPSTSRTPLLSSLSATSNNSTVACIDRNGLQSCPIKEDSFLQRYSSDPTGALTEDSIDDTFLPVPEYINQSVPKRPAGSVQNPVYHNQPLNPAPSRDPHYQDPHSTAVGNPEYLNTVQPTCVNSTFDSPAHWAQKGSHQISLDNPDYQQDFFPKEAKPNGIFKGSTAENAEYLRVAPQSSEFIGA
Summary of the method: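 EGFR remaining after a 16 h, 37 °C exposure (8 doses, 5-fold steps from 10 uM final, 0.2% DMSO) was quantified by HTRF antibodies in cell lysate. Percent inhibition relative to DMSO control was fitted by four-parameter logistic to give DC50; Dmax denotes maximal degradation.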

[5] = H1975 # 28 DTC cells; EGFR degradation, IC50 (DC50) from curve fit; read-out: DC50(nM) H1975 # 28 DTC
[6] = H1975 # 28 DTC cells; maximum percentage of inhibition (degradation)
[7] = BaF3 LC, 16h treatment, maximum percentage of degradation; read-out: BaF3 LC Dmax (%)
[8] = BaF3 LC, 16h treatment; read-out: BaF3 LC DC50
[9] = H1975 #23 DC, 16h treatment, read-out: H1975 #23 DC DC50
[10] = BaF3-LTC cells; EGFR degradation, IC50 (DC50) from curve fit; read-out: DC50(nM) BaF3-LTC
[11] = BaF3-LTC cells; maximum percentage of inhibition (degradation); read-out: Dmax (%) BaF3-LTC
[12] = read-out: DC50(nM) H1975 # 28 DTC; H1975 # 28 DTC cells; EGFR degradation, IC50 (DC50) from curve fit
[13] = read-out: H1975 #23 DC DC50, 16h treatment

DC50 [1, 5] [nM]	Dmax [2, 7] [%]	DC50 [2, 8] [nM]	DC50 [3, 9] [nM]	DC50 [4, 10] [nM]	Dmax [4, 11] [%]	Structure (SMILES)	Dmax (%) H1975 # 28 DTC [1, 6] [%]	H1975 #23 DC Dmax (%) ([3]; 16h treatment)	DC50 [1, 12] [nM]	Dmax ([2]; BaF3, read-out: BaF3 LC Dmax (%)) [%]	DC50 ([2]; read-out: BaF3 LC DC50; BaF3 LC, 16h treatment) [nM]	DC50 [3, 13] [nM]	DC50 ([4]; read-out: DC50(nM) BaF3-LTC; BaF3-LTC cells; EGFR degradation, IC50 (DC50) from curve fit) [nM]	Dmax ([4]; read-out: Dmax (%) BaF3-LTC, BaF3-LTC cells; maximum percentage of inhibition (degradation)) [%]
0.57		16.4	7.68	4.13		CCc1ccc2c(P(C)(C)=O)c(Nc3nc(Nc4cc(CC)c(N5CCC(N6CCN(C(=O)C7CN(c8cc(F)c([C@H]9CCC(=O)NC9=O)c(F)c8)C7)CC6)CC5)cc4OC)ncc3Br)ccc2n1 [Example 755, (R)-3-(4-(3-(4-(1-(4-((5-bromo-4-((5-(dimethylphosphoryl)-2-ethylquinolin-6-yl)amino)pyrimidin-2-yl)amino)-2-ethyl-5-methoxyphenyl)piperidin-4-yl)piperazine-1-carbonyl)azetidin-1-yl)-2,6-difluorophenyl)piperidine-2,6-dione]	84.62	69.09						
1.55	83.5	51.8	9.42	7.03	96.4	CCOc1cc(N2CCC(N3CCN(C(=O)[C@@H]4CCN(c5cc(F)c([C@H]6CCC(=O)NC6=O)c(F)c5)C4)CC3)CC2)c(CC)cc1Nc1ncc(Br)c(Nc2ccc3nc(C)ccc3c2P(C)(C)=O)n1 [Example 531, (R)-3-(4-((R)-3-(4-(1-(4-((5-bromo-4-((5-(dimethylphosphoryl)-2-methylquinolin-6-yl)amino)pyrimidin-2-yl)amino)-5-ethoxy-2-ethylphenyl)piperidin-4-yl)piperazine-1-carbonyl)pyrrolidin-1-yl)-2,6-difluorophenyl)piperidine-2,6-dione]	74.06	53.36						
1.18	90.8	28.8	7.47	5.05	97.2	CCc1ccc2c(P(C)(C)=O)c(Nc3nc(Nc4cc(CC)c(N5CCC(N6CCN(C(=O)[C@@H]7CCN(c8cc(F)c([C@H]9CCC(=O)NC9=O)c(F)c8)C7)CC6)CC5)cc4OC)ncc3Br)cc(F)c2n1 [Example 533, (R)-3-(4-((R)-3-(4-(1-(4-((5-bromo-4-((5-(dimethylphosphoryl)-2-ethyl-8-fluoroquinolin-6-yl)amino)pyrimidin-2-yl)amino)-2-ethyl-5-methoxyphenyl)piperidin-4-yl)piperazine-1-carbonyl)pyrrolidin-1-yl)-2,6-difluorophenyl)piperidine-2,6-dione]	83.78	73.47						

Further lines, the molecule ahead of its results:

Structure (SMILES)	DC50 [1, 5] [nM]	Dmax [2, 7] [%]	DC50 [2, 8] [nM]	DC50 [3, 9] [nM]	DC50 [4, 10] [nM]	Dmax [4, 11] [%]	Dmax (%) H1975 # 28 DTC [1, 6] [%]	H1975 #23 DC Dmax (%) ([3]; 16h treatment)	DC50 [1, 12] [nM]	Dmax ([2]; BaF3, read-out: BaF3 LC Dmax (%)) [%]	DC50 ([2]; read-out: BaF3 LC DC50; BaF3 LC, 16h treatment) [nM]	DC50 [3, 13] [nM]	DC50 ([4]; read-out: DC50(nM) BaF3-LTC; BaF3-LTC cells; EGFR degradation, IC50 (DC50) from curve fit) [nM]	Dmax ([4]; read-out: Dmax (%) BaF3-LTC, BaF3-LTC cells; maximum percentage of inhibition (degradation)) [%]
CCOc1cc(N2CCC(N3CCN(CCc4cc(F)c(C5CCC(=O)NC5=O)c(F)c4)CC3)CC2)c(CC)cc1Nc1ncc(Br)c(Nc2ccc3nc(C)ccc3c2P(C)(C)=O)n1 (stereo not drawn) [Example 482, 3-(4-(2-(4-(1-(4-((5-bromo-4-((5-(dimethylphosphoryl)-2-methylquinolin-6-yl)amino)pyrimidin-2-yl)amino)-5-ethoxy-2-ethylphenyl)piperidin-4-yl)piperazin-1-yl)ethyl)-2,6-difluorophenyl)piperidine-2,6-dione]	1.86	73.4	50.8	7.2	12.9	88.7	69.65	70.91						
CCOc1cc(N2CCC(N3CCN(CCc4ccc5c(c4)oc(=O)n5C4CCC(=O)NC4=O)CC3)CC2)c(CC)cc1Nc1ncc(Br)c(Nc2ccc3nc(CC)ccc3c2P(C)(C)=O)n1 (stereo not drawn) [Example 463, 3-(6-(2-(4-(1-(4-((5-bromo-4-((5-(dimethylphosphoryl)-2-ethylquinolin-6-yl)amino)pyrimidin-2-yl)amino)-5-ethoxy-2-ethylphenyl)piperidin-4-yl)piperazin-1-yl)ethyl)-2-oxobenzo[d]oxazol-3(2H)-yl)piperidine-2,6-dione]	0.26	85.5	6.88	0.951	3.34	92.6	82.73	56.75						
CCOc1cc(N2CCC(N3CCN(CCc4cc5oc(=O)n(C6CCC(=O)NC6=O)c5cc4F)CC3)CC2)c(CC)cc1Nc1ncc(Br)c(Nc2cc(F)c3nc(CC)ccc3c2P(C)(C)=O)n1 (stereo not drawn) [Example 498, 3-(6-(2-(4-(1-(4-((5-bromo-4-((5-(dimethylphosphoryl)-2-ethyl-8-fluoroquinolin-6-yl)amino)pyrimidin-2-yl)amino)-5-ethoxy-2-ethylphenyl)piperidin-4-yl)piperazin-1-yl)ethyl)-5-fluoro-2-oxobenzo[d]oxazol-3(2H)-yl)piperidine-2,6-dione]	2.1	92.9	0.718	0.377	7.62	91.4	86.84	66.76						
CCc1ccc2c(P(C)(C)=O)c(Nc3nc(Nc4cc(CC)c(N5CCC(N6CCN(C(=O)C7CN(c8cccc9c8oc(=O)n9C8CCC(=O)NC8=O)C7)CC6)CC5)cc4OC)ncc3Br)ccc2n1 (stereo not drawn) [Example 446, 3-(7-(3-(4-(1-(4-((5-bromo-4-((5-(dimethylphosphoryl)-2-ethylquinolin-6-yl)amino)pyrimidin-2-yl)amino)-2-ethyl-5-methoxyphenyl)piperidin-4-yl)piperazine-1-carbonyl)azetidin-1-yl)-2-oxobenzo[d]oxazol-3(2H)-yl)piperidine-2,6-dione]							80.48	59.25	0.726	81.7	5.87	0.616	3.89	96.4
CCc1ncc2c(P(C)(C)=O)c(Nc3nc(Nc4cc(CC)c(N5CCC(N6CCN(CCc7ccc8c(c7)oc(=O)n8C7CCC(=O)NC7=O)CC6)CC5)cc4OC)ncc3Br)ccc2n1 (stereo not drawn) [Example 499, 3-(6-(2-(4-(1-(4-((5-bromo-4-((5-(dimethylphosphoryl)-2-ethylquinazolin-6-yl)amino)pyrimidin-2-yl)amino)-2-ethyl-5-methoxyphenyl)piperidin-4-yl)piperazin-1-yl)ethyl)-2-oxobenzo[d]oxazol-3(2H)-yl)piperidine-2,6-dione]			0.955		1.95		77.41	61.96	0.185			0.646		
